Among the data in US10196386B2, “Compounds having muscarinic receptor antagonist and beta2 adrenergic receptor agonist activity” (priority 2016, dated 2019) are IC50 values, retold here.

One assay deals with T1, Human M3 receptor (Homo sapiens, UniProt P20309).
T1 construct: purchased Perkin Elmer
Put plainly: biochemical. It is filed as binding. Conditions: read-out: M3 Range.

The next assay addresses T2, Human β2 adrenoceptor (Homo sapiens, UniProt P07550).
T2 construct: purchased Perkin Elmer
Put plainly: β2 adrenoceptor radioligand binding assay. The gist of the method:
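Human β2 receptor membranes incubated 1 h at room temperature with 0.3 nM [125I]cyanopindolol and compound in pH 7.4 HEPES buffer (0.5% DMSO); 2 μM s-propranolol defined non-specific binding. Bound label counted after filtration; IC50 from competition curves, converted to Ki via Cheng–Prusoff.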

T1 sequence (P20309 whole entry): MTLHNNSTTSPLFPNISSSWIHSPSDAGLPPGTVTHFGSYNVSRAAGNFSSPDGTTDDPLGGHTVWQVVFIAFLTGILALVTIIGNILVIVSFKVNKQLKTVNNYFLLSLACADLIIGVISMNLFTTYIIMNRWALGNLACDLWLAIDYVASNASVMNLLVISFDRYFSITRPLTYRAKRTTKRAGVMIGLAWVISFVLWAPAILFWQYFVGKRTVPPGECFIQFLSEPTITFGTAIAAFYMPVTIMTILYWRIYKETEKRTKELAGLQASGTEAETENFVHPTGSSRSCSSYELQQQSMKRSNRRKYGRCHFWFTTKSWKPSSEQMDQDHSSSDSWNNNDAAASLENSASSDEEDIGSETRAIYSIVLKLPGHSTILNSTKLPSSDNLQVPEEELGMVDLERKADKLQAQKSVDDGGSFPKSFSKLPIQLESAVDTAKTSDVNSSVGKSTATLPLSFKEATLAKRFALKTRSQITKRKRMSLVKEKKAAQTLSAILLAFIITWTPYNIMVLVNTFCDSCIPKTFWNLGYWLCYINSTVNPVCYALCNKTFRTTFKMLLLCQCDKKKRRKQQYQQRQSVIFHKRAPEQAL
T2 sequence (P07550 whole entry): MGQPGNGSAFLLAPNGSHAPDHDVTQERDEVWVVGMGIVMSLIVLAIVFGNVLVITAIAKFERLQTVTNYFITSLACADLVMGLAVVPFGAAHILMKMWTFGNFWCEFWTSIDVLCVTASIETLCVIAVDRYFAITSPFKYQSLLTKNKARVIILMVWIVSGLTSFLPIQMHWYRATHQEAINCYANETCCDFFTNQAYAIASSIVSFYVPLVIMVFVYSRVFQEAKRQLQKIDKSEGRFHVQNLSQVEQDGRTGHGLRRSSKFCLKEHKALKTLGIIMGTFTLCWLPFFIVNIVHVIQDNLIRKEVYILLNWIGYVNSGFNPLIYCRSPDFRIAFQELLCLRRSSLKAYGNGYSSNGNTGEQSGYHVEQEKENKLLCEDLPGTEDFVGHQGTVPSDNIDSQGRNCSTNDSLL

For `O=C(c1ccnc(-c2cccc([C@](O)(C(=O)OCC3CCN(Cc4ccccc4)CC3)c3ccccc3)c2)c1)N1CCC(CNC[C@H](O)c2ccc(O)c3[nH]c(=O)ccc23)CC1` [Compound 6, (1-Benzylpiperidin-4-yl)methyl (S)-2-hydroxy-2-(3-(4-(4-((((R)-2-hydroxy-2-(8-hydroxy-2-oxo-1,2-dihydroquinolin-5-yl)ethyl)amino)methyl)piperidine-1-carbonyl)pyridin-2-yl)phenyl)-2-phenylacetate], the figures for the IC50 at Human M3 receptor and on Human β2 adrenoceptor were 0.3 to 3 nM and less than 0.3 nM, respectively.
Consider `O=C(c1cncc(-c2cccc([C@](O)(C(=O)OCC3CCN(Cc4ccccc4)CC3)c3ccccc3)c2)n1)N1CCC(CNC[C@H](O)c2ccc(O)c3[nH]c(=O)ccc23)CC1` [Compound 6A, (1-Benzylpiperidin-4-yl)methyl (S)-2-hydroxy-2-(3-(6-(4-((((R)-2-hydroxy-2-(8-hydroxy-2-oxo-1,2-dihydroquinolin-5-yl)ethyl)amino)methyl)piperidine-1-carbonyl)pyrazin-2-yl)phenyl)-2-phenylacetate], for which the IC50 at Human M3 receptor and on Human β2 adrenoceptor was 0.3 to 3 nM in each case.
On to `O=C(c1cc(-c2cccc([C@](O)(C(=O)OCC3CCN(Cc4ccccc4)CC3)c3ccccc3)c2)ccn1)N1CCC(CNC[C@H](O)c2ccc(O)c3[nH]c(=O)ccc23)CC1` [Compound 6B, (1-Benzylpiperidin-4-yl)methyl (S)-2-hydroxy-2-(3-(2-(4-((((R)-2-hydroxy-2-(8-hydroxy-2-oxo-1,2-dihydroquinolin-5-yl)ethyl)amino)methyl)piperidine-1-carbonyl)pyridin-4-yl)phenyl)-2-phenylacetate], for which the IC50 at Human M3 receptor was 0.3 to 3 nM; at Human β2 adrenoceptor, less than 0.3 nM.
With `O=C(c1ccc(-c2cccc([C@](O)(C(=O)OCC3CCN(Cc4ccccc4)CC3)c3ccccc3)c2)cn1)N1CCC(CNC[C@H](O)c2ccc(O)c3[nH]c(=O)ccc23)CC1` [Compound 6C, (1-Benzylpiperidin-4-yl)methyl (S)-2-hydroxy-2-(3-(6-(4-((((R)-2-hydroxy-2-(8-hydroxy-2-oxo-1,2-dihydroquinolin-5-yl)ethyl)amino)methyl)piperidine-1-carbonyl)pyridin-3-yl)phenyl)-2-phenylacetate], the IC50 at Human M3 receptor and on Human β2 adrenoceptor was less than 0.3 nM in each case.
As to `O=C(c1ccc(-c2cccc([C@](O)(C(=O)OCC3CCN(Cc4ccccc4)CC3)c3ccccc3)c2)nc1)N1CCC(CNC[C@H](O)c2ccc(O)c3[nH]c(=O)ccc23)CC1` [Compound 6D, (1-Benzylpiperidin-4-yl)methyl (S)-2-hydroxy-2-(3-(5-(4-((((R)-2-hydroxy-2-(8-hydroxy-2-oxo-1,2-dihydroquinolin-5-yl)ethyl)amino)methyl)piperidine-1-carbonyl)pyridin-2-yl)phenyl)-2-phenylacetate], the IC50 at Human M3 receptor is 0.3 to 3 nM; at Human β2 adrenoceptor it was less than 0.3 nM.
As to `O=C(c1cncc(-c2cccc([C@](O)(C(=O)OCC3CCN(Cc4ccccc4)CC3)c3ccccc3)c2)c1)N1CCC(CNC[C@H](O)c2ccc(O)c3[nH]c(=O)ccc23)CC1` [Compound 6E, (1-Benzylpiperidin-4-yl)methyl (S)-2-hydroxy-2-(3-(5-(4-((((R)-2-hydroxy-2-(8-hydroxy-2-oxo-1,2-dihydroquinolin-5-yl)ethyl)amino)methyl)piperidine-1-carbonyl)pyridin-3-yl)phenyl)-2-phenylacetate], the IC50 on Human M3 receptor was 0.3 to 3 nM; at Human β2 adrenoceptor it was less than 0.3 nM.
Consider `O=C(c1cccc(-c2cccc([C@](O)(C(=O)OCC3CCN(Cc4ccccc4)CC3)c3ccccc3)c2)n1)N1CCC(CNC[C@H](O)c2ccc(O)c3[nH]c(=O)ccc23)CC1` [Compound 6F, (1-Benzylpiperidin-4-yl)methyl (S)-2-hydroxy-2-(3-(6-(4-((((R)-2-hydroxy-2-(8-hydroxy-2-oxo-1,2-dihydroquinolin-5-yl)ethyl)amino)methyl)piperidine-1-carbonyl)pyridin-2-yl)phenyl)-2-phenylacetate], for which the IC50 at Human M3 receptor and on Human β2 adrenoceptor was 0.3 to 3 nM in each case.
With `O=C(c1ccc(CNC[C@H](O)c2ccc(O)c3[nH]c(=O)ccc23)cc1)N1CCC(c2cccc([C@](O)(C(=O)OCC3CCN(Cc4ccccc4)CC3)c3ccccc3)c2)CC1` [Compound 7, (1-Benzylpiperidin-4-yl)methyl (S)-2-hydroxy-2-(3-(1-(4-((((R)-2-hydroxy-2-(8-hydroxy-2-oxo-1,2-dihydroquinolin-5-yl)ethyl)amino)methyl)benzoyl)piperidin-4-yl)phenyl)-2-phenylacetate], the IC50 at Human M3 receptor and on Human β2 adrenoceptor was 0.3 to 3 nM each time.
`COc1cc(C(=O)N2CCC(c3cccc([C@](O)(C(=O)OCC4CCN(Cc5ccccc5)CC4)c4ccccc4)c3)CC2)ccc1CNC[C@H](O)c1ccc(O)c2[nH]c(=O)ccc12` [Compound 7A, (1-Benzylpiperidin-4-yl)methyl (S)-2-hydroxy-2-(3-(1-(4-((((R)-2-hydroxy-2-(8-hydroxy-2-oxo-1,2-dihydroquinolin-5-yl)ethyl)amino)methyl)-3-methoxybenzoyl)piperidin-4-yl)phenyl)-2-phenylacetate]: the IC50 at Human M3 receptor and on Human β2 adrenoceptor was 0.3 to 3 nM throughout.
Consider `COc1cc(CNC[C@H](O)c2ccc(O)c3[nH]c(=O)ccc23)ccc1C(=O)N1CCC(c2cccc([C@](O)(C(=O)OCC3CCN(Cc4ccccc4)CC3)c3ccccc3)c2)CC1` [Compound 7B, (1-Benzylpiperidin-4-yl)methyl (S)-2-hydroxy-2-(3-(1-(4-((((R)-2-hydroxy-2-(8-hydroxy-2-oxo-1,2-dihydroquinolin-5-yl)ethyl)amino)methyl)-2-methoxybenzoyl)piperidin-4-yl)phenyl)-2-phenylacetate], for which the IC50 was 0.3 to 3 nM on Human M3 receptor and greater than 3 nM at Human β2 adrenoceptor.
As to `O=C(c1ccc(CCNC[C@H](O)c2ccc(O)c3[nH]c(=O)ccc23)cc1)N1CCC(c2cccc([C@](O)(C(=O)OCC3CCN(Cc4ccccc4)CC3)c3ccccc3)c2)CC1` [Compound 7C, (1-Benzylpiperidin-4-yl)methyl (S)-2-hydroxy-2-(3-(1-(4-(2-(((R)-2-hydroxy-2-(8-hydroxy-2-oxo-1,2-dihydroquinolin-5-yl)ethyl)amino)ethyl)benzoyl)piperidin-4-yl)phenyl)-2-phenylacetate], the IC50 at Human M3 receptor was 0.3 to 3 nM; on Human β2 adrenoceptor, less than 0.3 nM.
With `O=C(c1ccc2c(c1)CC(NC[C@H](O)c1ccc(O)c3[nH]c(=O)ccc13)C2)N1CCC(c2cccc([C@](O)(C(=O)OCC3CCN(Cc4ccccc4)CC3)c3ccccc3)c2)CC1` (stereo partly drawn) [Compound 7D, (1-Benzylpiperidin-4-yl)methyl (2S)-2-hydroxy-2-(3-(1-(2-(((R)-2-hydroxy-2-(8-hydroxy-2-oxo-1,2-dihydroquinolin-5-yl)ethyl)amino)-2,3-dihydro-1H-indene-5-carbonyl)piperidin-4-yl)phenyl)-2-phenylacetate], the IC50 on Human M3 receptor was less than 0.3 nM; at Human β2 adrenoceptor, 0.3 to 3 nM.
As for `O=C(NCC(=O)N1CC=C(c2cccc([C@](O)(C(=O)OCC3CCN(Cc4ccccc4)CC3)c3ccccc3)c2)CC1)c1ccc(CCNC[C@H](O)c2ccc(O)c3[nH]c(=O)ccc23)cc1` [Compound 8, (1-Benzylpiperidin-4-yl)methyl (S)-2-hydroxy-2-(3-(1-((4-(2-(((R)-2-hydroxy-2-(8-hydroxy-2-oxo-1,2-dihydroquinolin-5-yl)ethyl)amino)ethyl)benzoyl)-glycyl)-1,2,3,6-tetrahydropyridin-4-yl)phenyl)-2-phenylacetate], the IC50 at Human M3 receptor and at Human β2 adrenoceptor was less than 0.3 nM throughout.
Regarding `COc1cc(CNC[C@H](O)c2ccc(O)c3[nH]c(=O)ccc23)ccc1C(=O)NCC(=O)N1CC=C(c2cccc([C@](O)(C(=O)OCC3CCN(Cc4ccccc4)CC3)c3ccccc3)c2)CC1` [Compound 8A, (1-Benzylpiperidin-4-yl)methyl (S)-2-hydroxy-2-(3-(1-((4-((((R)-2-hydroxy-2-(8-hydroxy-2-oxo-1,2-dihydroquinolin-5-yl)ethyl)amino)methyl)-2-methoxybenzoyl)glycyl)-1,2,3,6-tetrahydropyridin-4-yl)phenyl)-2-phenylacetate], the values for the IC50 on Human M3 receptor and on Human β2 adrenoceptor were 0.3 to 3 nM and less than 0.3 nM, respectively.
Turning to `C[C@@H](NC(=O)c1ccc(CNC[C@H](O)c2ccc(O)c3[nH]c(=O)ccc23)cc1)C(=O)N1CC=C(c2cccc([C@](O)(C(=O)OCC3CCN(Cc4ccccc4)CC3)c3ccccc3)c2)CC1` [Compound 8B, (1-Benzylpiperidin-4-yl)methyl (S)-2-hydroxy-2-(3-(1-((4-((((R)-2-hydroxy-2-(8-hydroxy-2-oxo-1,2-dihydroquinolin-5-yl)ethyl)amino)methyl)benzoyl)-D-alanyl)-1,2,3,6-tetrahydropyridin-4-yl)phenyl)-2-phenylacetate], the IC50 at Human M3 receptor and at Human β2 adrenoceptor was 0.3 to 3 nM throughout.
For the compound `C[C@H](NC(=O)c1ccc(CNC[C@H](O)c2ccc(O)c3[nH]c(=O)ccc23)cc1)C(=O)N1CC=C(c2cccc([C@](O)(C(=O)OCC3CCN(Cc4ccccc4)CC3)c3ccccc3)c2)CC1` [Compound 8C, (1-Benzylpiperidin-4-yl)methyl (S)-2-hydroxy-2-(3-(1-((4-((((R)-2-hydroxy-2-(8-hydroxy-2-oxo-1,2-dihydroquinolin-5-yl)ethyl)amino)methyl)benzoyl)-L-alanyl)-1,2,3,6-tetrahydropyridin-4-yl)phenyl)-2-phenylacetate], the IC50 at Human M3 receptor and at Human β2 adrenoceptor was 0.3 to 3 nM each time.
Take `O=C(NCC(=O)N1CC=C(c2cccc([C@](O)(C(=O)OCC3CCN(Cc4ccccc4)CC3)c3ccccc3)c2)CC1)c1ccc(CNC[C@H](O)c2ccc(O)c3[nH]c(=O)ccc23)cc1` [Compound 8D, (1-Benzylpiperidin-4-yl)methyl (S)-2-hydroxy-2-(3-(1-((4-((((R)-2-hydroxy-2-(8-hydroxy-2-oxo-1,2-dihydroquinolin-5-yl)ethyl)amino)methyl)-benzoyl)glycyl)-1,2,3,6-tetrahydropyridin-4-yl)phenyl)-2-phenylacetate]: the IC50 on Human M3 receptor was 0.3 to 3 nM; at Human β2 adrenoceptor, less than 0.3 nM.
